≈ marks a conversion by molar mass, not a printed value.
How the values were obtained:
[1] = physchem; details: buffer, pH 1.2
Description: Solubility of compound at pH 1.2

[2] = physchem; details: buffer, pH 6.8
Description: Solubility of compound at pH 6.8

solubility [1]	solubility [2]	SMILES
1.1 µg/mL (≈ 2.04 µM)	< 1 µg/mL	CCOC(=O)c1ccc(NC(=O)c2nc3c(s2)CN(C)CC3)c(NC(=O)c2cc3cc(Cl)ccc3[nH]2)c1
256 µg/mL (≈ 462 µM)	825 µg/mL (≈ 1490 µM)	CC(Oc1ccc(NC(=O)c2cc3cc(Cl)ccc3[nH]2)c(NC(=O)c2nc3c(s2)CN(C)CC3)c1)C(=O)O (centres undefined)
